Assay: Bupivacaine elution profile from coated stents of Example 4 in PBS flow chamber (HPLC)
Type: physicochemical
Settings: coated stent of Example 4 (calcium phosphate base layer + PVA polymer layer), 10 ml PBS per day
Experimental: An elution analysis was performed to assay release of bupivacaine over time from the coated stents of Example 4. An 18 mm long test specimen having a known surface area was cut from one of the coated stents of Example 4 and placed in a flow chamber. For 7 days, the test specimen was bathed with 10 ml per day of a phosphate buffered saline (PBS) solution. Every 24 hours, a 100 μl sample was taken of the 10 ml of PBS effluent collected over the preceding 24 hour period. The amount of bupivacaine in a 10 μl aliquot of the sample was quantified using a reverse-phase high pressure liquid chromatography (HPLC) system including a […] silica column. A solution of 30% acetonitrile and 70% buffered acid (985 ml of HPLC-grade water, 15 ml 1.0 M HCl, and 1.38 grams monobasic NaH2PO4) was employed as the mobile phase for the HPLC analysis. The data from the HPLC analysis was then normalized against the surface area of the test specimen and 10 ml volume of PBS effluent. Each data point represents the amount of bupivacaine eluted into the PBS solution during the proceeding 24-hour period, with each data point expressed in terms of in μg of bupivacaine released per cm^2 of coated stent surface. […]

CCCCN1CCCCC1C(=O)Nc1c(C)cccc1C (centres unmarked) [bupivacaine]
release of bupivacaine from coated stent into PBS solution (days 1-3, attributed to the polymer layer): relative burst release | release of bupivacaine from coated stent into PBS solution (days 4-7, attributed to erosion of the calcium phosphate base layer): more gradual release
